14 compounds from DBAASP can be followed below.

Test systems include Bacillus cereus; Escherichia coli; Staphylococcus aureus.
What all share (assay): ≥ marks a high value that may be exact or a test limit, other limits are often not marked, values filed in µg/mL are converted to µM
Experiment [1] concerns Staphylococcus epidermidis ATCC 12228.
Experiment [2] has as its system Pseudomonas aeruginosa ATCC 27853.
Experiment [3] deals with Escherichia coli ATCC 25922.
The test system of experiment [4] is Staphylococcus aureus ATCC 25923.

As a reminder, the MIC is the smallest concentration in the dilution series that meets the test's criterion for growth inhibition. A higher MIC goes with a less susceptible organism.

Converted amounts (≈) assume the structure as drawn. Bounds are passed on as bounds.

For the compound `CC[C@H](C)[C@H](NC(=O)CNC(=O)[C@H](C)NC(=O)[C@H](Cc1ccc(O)cc1)NC(=O)[C@@H](NC(=O)[C@H](CC(C)C)NC(=O)[C@H](C)N)C(C)C)C(=O)N[C@@H](CCCCN)C(=O)N[C@@H](CCCCN)C(=O)N[C@H](C(=O)N[C@@H](C)C(=O)N[C@@H](Cc1ccccc1)C(=O)N[C@@H](CC(C)C)C(=O)N[C@@H](CCCCN)C(=O)N[C@H](C(=O)N[C@@H](CCC(N)=O)C(=O)N[C@@H](CCCCN)C(=O)N[C@@H](CS)C(=O)N[C@@H](CC(=O)O)C(=O)NCC(=O)O)C(C)C)[C@@H](C)O` [ALVYAGIKKTAFLKVQKCDG], the MIC is no less than 119 µM in the experiment with Bacillus cereus and greater than 119 µM against Escherichia coli.
`CC(C)C[C@H](NC(=O)[C@@H](N)Cc1ccccc1)C(=O)NCC(=O)N[C@@H](CCCCN)C(=O)N[C@H](C(=O)N[C@@H](Cc1ccccc1)C(=O)N[C@@H](CCCCN)C(=O)N[C@@H](CCCCN)C(=O)N[C@@H](C)C(=O)N[C@@H](CO)C(=O)N[C@@H](CCCCN)C(=O)N[C@H](C(=O)N[C@H](C(=O)N1CCC[C@H]1C(=O)N[C@@H](C)C(=O)N[C@H](C(=O)N[C@@H](Cc1ccccc1)C(=O)NCC(=O)N[C@@H](CCCCN)C(=O)N[C@H](C(=O)O)C(C)C)C(C)C)C(C)C)C(C)C)C(C)C` [FLGKVFKKASKVVPAVFGKV]: the minimal inhibitory concentration (MIC) is no less than 119 µM in the experiment on Bacillus cereus, greater than 119 µM in the experiment with Staphylococcus aureus and 119 µM (≈ 256 µg/mL) against Escherichia coli.
The corresponding values for `CC(C)C[C@H](NC(=O)[C@H](CCCCN)NC(=O)[C@H](Cc1ccccc1)NC(=O)[C@@H](NC(=O)[C@H](CCCCN)NC(=O)CNC(=O)[C@H](CC(C)C)NC(=O)[C@@H](N)Cc1ccccc1)C(C)C)C(=O)N[C@@H](C)C(=O)N[C@@H](CO)C(=O)N[C@@H](CCCCN)C(=O)N[C@H](C(=O)N[C@@H](Cc1ccccc1)C(=O)N1CCC[C@H]1C(=O)N[C@@H](C)C(=O)N[C@H](C(=O)N[C@@H](Cc1ccccc1)C(=O)NCC(=O)N[C@@H](CCCCN)C(=O)N[C@H](C(=O)O)C(C)C)C(C)C)C(C)C` [FLGKVFKLASKVFPAVFGKV] are 7.33 µM (≈ 16 µg/mL), 14.7 µM (≈ 32 µg/mL) and 7.33 µM (≈ 16 µg/mL).
For the compound `CC(C)C[C@H](NC(=O)[C@@H](N)Cc1ccccc1)C(=O)NCC(=O)N[C@@H](CCCCN)C(=O)N[C@H](C(=O)N[C@H](C(=O)N[C@@H](CCCCN)C(=O)NCC(=O)N[C@@H](C)C(=O)N[C@@H](CO)C(=O)N[C@@H](CCCCN)C(=O)N[C@H](C(=O)N[C@@H](Cc1ccccc1)C(=O)N1CCC[C@H]1C(=O)N[C@@H](C)C(=O)N[C@H](C(=O)N[C@@H](Cc1ccccc1)C(=O)NCC(=O)N[C@@H](CCCCN)C(=O)N[C@H](C(=O)O)C(C)C)C(C)C)C(C)C)C(C)C)C(C)C` [FLGKVVKGASKVFPAVFGKV], the values for the MIC against Bacillus cereus, against Staphylococcus aureus and in the experiment on Escherichia coli were no less than 123 µM, greater than 123 µM and greater than 123 µM, respectively.
Take `CC(C)C[C@H](NC(=O)[C@H](CCCCN)NC(=O)[C@H](Cc1ccccc1)NC(=O)[C@@H](NC(=O)[C@H](CO)NC(=O)CNC(=O)[C@H](CC(C)C)NC(=O)[C@@H](N)Cc1ccccc1)C(C)C)C(=O)N[C@@H](C)C(=O)N[C@@H](CO)C(=O)N[C@@H](CCCCN)C(=O)N[C@H](C(=O)N[C@@H](Cc1ccccc1)C(=O)N1CCC[C@H]1C(=O)N[C@@H](C)C(=O)N[C@H](C(=O)N[C@@H](Cc1ccccc1)C(=O)NCC(=O)N[C@@H](CCCCN)C(=O)N[C@H](C(=O)O)C(C)C)C(C)C)C(C)C` [FLGSVFKLASKVFPAVFGKV]: the minimal inhibitory concentration (MIC) against Bacillus cereus stood at 14.9 µM (≈ 32 µg/mL); against Staphylococcus aureus it was 29.9 µM (≈ 64 µg/mL); with Escherichia coli it was 29.9 µM (≈ 64 µg/mL).
As to `CC(C)C[C@H](NC(=O)[C@@H](N)Cc1ccccc1)C(=O)NCC(=O)N[C@H](C(=O)N[C@H](C(=O)N[C@@H](Cc1ccccc1)C(=O)N[C@@H](CCCCN)C(=O)N[C@@H](CCCCN)C(=O)N[C@@H](C)C(=O)N[C@@H](CO)C(=O)N[C@@H](CCCCN)C(=O)N[C@H](C(=O)N[C@@H](Cc1ccccc1)C(=O)NCC(=O)N[C@@H](C)C(=O)N[C@H](C(=O)N[C@@H](Cc1ccccc1)C(=O)NCC(=O)N[C@@H](CCCCN)C(=O)N[C@H](C(=O)O)C(C)C)C(C)C)C(C)C)C(C)C)C(C)C` [FLGVVFKKASKVFGAVFGKV], the values for the MIC in the experiment on Bacillus cereus, against Staphylococcus aureus and in the experiment with Escherichia coli were no less than 60.1 µM, greater than 120 µM and 30.1 µM (≈ 64 µg/mL), respectively.
As for `CSCC[C@H](NC(=O)[C@@H](N)Cc1ccccc1)C(=O)N[C@@H](CCCCN)C(=O)N[C@H](C(=O)N[C@@H](CC(C)C)C(=O)N[C@@H](C)C(=O)N[C@H](C(=O)N[C@@H](Cc1ccccc1)C(=O)NCC(=O)N[C@@H](CO)C(=O)N[C@H](C(=O)N[C@H](C(=O)N[C@H](C(=O)N[C@@H](CO)C(=O)N[C@@H](C)C(=O)N1CCC[C@H]1C(=O)N[C@@H](CCCCN)C(=O)N[C@@H](C)C(=O)N[C@@H](CO)C(=O)N[C@@H](CCCCN)C(=O)O)[C@@H](C)O)C(C)C)C(C)C)C(C)C)C(C)C` [FMKVLAVFGSVVTSAPKASK], the results for the minimal inhibitory concentration (MIC) in the experiment with Bacillus cereus and against Escherichia coli were no less than 124 µM and greater than 124 µM, respectively.
In the case of `CC[C@H](C)[C@H](NC(=O)[C@H](CCCCN)NC(=O)[C@@H](NC(=O)[C@@H](NC(=O)[C@H](Cc1ccc(O)cc1)NC(=O)[C@@H](NC(=O)[C@@H](N)CCCCN)C(C)C)C(C)C)C(C)C)C(=O)N[C@@H](C)C(=O)N[C@H](C(=O)N1CCC[C@H]1C(=O)N[C@@H](CS)C(=O)N[C@@H](Cc1ccccc1)C(=O)N1CCC[C@H]1C(=O)N[C@@H](CCCCN)C(=O)N[C@@H](CO)C(=O)N[C@@H](C)C(=O)N[C@@H](CCCN=C(N)N)C(=O)N[C@@H](CO)C(=O)N[C@H](C(=O)N[C@@H](CO)C(=O)O)C(C)C)C(C)C` [KVYVVKIAVPCFPKSARSVS], the MIC against Bacillus cereus was no less than 118 µM; in the experiment with Escherichia coli, greater than 118 µM.
Turning to `CC[C@H](C)[C@H](NC(=O)[C@H](C)NC(=O)[C@H](CCCCN)NC(=O)[C@H](CC(C)C)NC(=O)[C@H](C)NC(=O)[C@@H](NC(=O)[C@H](Cc1cnc[nH]1)NC(=O)[C@H](C)NC(=O)[C@@H](NC(=O)[C@@H](NC(=O)[C@H](CCCCN)NC(=O)[C@H](CCCCN)NC(=O)[C@H](C)NC(=O)[C@H](CO)NC(=O)[C@H](CCCCN)NC(=O)[C@H](Cc1ccccc1)NC(=O)[C@@H](NC(=O)[C@H](CCCCN)NC(=O)[C@H](C)NC(=O)[C@H](Cc1ccccc1)NC(=O)[C@H](CO)NC(=O)[C@H](CCCCN)NC(=O)[C@H](Cc1c[nH]c2ccccc12)NC(=O)[C@H](CCCCN)NC(C)=O)[C@@H](C)O)[C@@H](C)O)C(C)C)[C@@H](C)O)C(=O)N[C@@H](CO)C(=O)N[C@@H](CO)C(N)=O` [KWKSFAKTFKSAKKTVAHTALKAISS], the MIC in experiment [1], in experiment [2], in experiment [3] and in experiment [4] was 125 µM (≈ 363 µg/mL) in each case.
For the compound `CC(C)C[C@H](NC(=O)[C@H](CCCCN)NC(=O)[C@H](Cc1ccccc1)NC(=O)[C@@H](NC(=O)[C@H](C)NC(=O)[C@@H]1CCCN1C(=O)[C@@H](N)CC(C)C)C(C)C)C(=O)N[C@@H](C)C(=O)N[C@@H](CO)C(=O)N[C@@H](CCCCN)C(=O)N[C@H](C(=O)N[C@@H](Cc1ccccc1)C(=O)N1CCC[C@H]1C(=O)N[C@@H](C)C(=O)N[C@H](C(=O)N[C@@H](Cc1ccc(O)cc1)C(=O)N[C@@H](CS)C(=O)N[C@@H](CCCCN)C(=O)N[C@@H](C)C(=O)N[C@@H](CO)C(=O)O)C(C)C)C(C)C` [LPAVFKLASKVFPAVYCKAS], the figures for the MIC with Bacillus cereus and in the experiment with Escherichia coli were no less than 120 µM and 59.8 µM (≈ 128 µg/mL), respectively.
The corresponding values for `CC[C@H](C)[C@H](NC(=O)[C@H](CCCCN)NC(=O)[C@H](Cc1ccccc1)NC(=O)[C@@H](NC(=O)[C@@H](NC(=O)[C@@H]1CCCN1C(=O)[C@@H](N)CC(C)C)C(C)C)C(C)C)C(=O)N[C@@H](C)C(=O)N[C@@H](CO)C(=O)N[C@@H](CCCCN)C(=O)N[C@H](C(=O)N[C@H](C(=O)N1CCC[C@H]1C(=O)N[C@@H](CO)C(=O)N[C@H](C(=O)N[C@H](C(=O)N[C@@H](CO)C(=O)N[C@@H](CCCCN)C(=O)N[C@H](C(=O)N[C@H](C(=O)O)[C@@H](C)O)[C@@H](C)CC)[C@@H](C)CC)C(C)C)C(C)C)C(C)C` [LPVVFKIASKVVPSVISKIT] are no less than 120 µM and greater than 120 µM.
`CC[C@H](C)[C@H](NC(=O)[C@H](Cc1ccccc1)NC(=O)[C@H](CCCCN)NC(=O)[C@H](C)NC(=O)[C@@H](NC(=O)[C@H](CO)NC(=O)[C@H](CCCCN)NC(=O)[C@@H](N)CCSC)[C@@H](C)CC)C(=O)N[C@@H](C)C(=O)N[C@@H](CCCCN)C(=O)N[C@H](C(=O)N[C@H](C(=O)N[C@@H](C)C(=O)N[C@@H](CCCCN)C(=O)N[C@@H](CCC(N)=O)C(=O)NCC(=O)N[C@@H](C)C(=O)N[C@@H](CCCCN)C(=O)N[C@@H](CCC(N)=O)C(=O)NCC(=O)O)C(C)C)[C@@H](C)O` [MKSIAKFIAKTVAKQGAKQG]: the minimal inhibitory concentration (MIC) with Bacillus cereus is no less than 122 µM; against Escherichia coli, greater than 122 µM.
For `CC[C@H](C)[C@H](NC(=O)[C@H](CO)NC(=O)[C@H](CC(C)C)NC(=O)CNC(=O)[C@@H](NC(=O)[C@@H](NC(=O)[C@H](CCCCN)NC(=O)[C@@H]1CCCN1)C(C)C)C(C)C)C(=O)N[C@H](C(=O)N[C@H](C(=O)N[C@H](C(=O)N[C@@H](CCCCN)C(=O)N[C@@H](C)C(=O)N[C@@H](CCCCN)C(=O)N[C@H](C(=O)N[C@@H](CO)C(=O)N[C@@H](CO)C(=O)N[C@@H](C)C(=O)N[C@@H](CC(C)C)C(=O)NCC(=O)O)C(C)C)C(C)C)C(C)C)C(C)C` [PKVVGLSIVVVKAKVSSALG], the minimum inhibitory concentration (MIC) is no less than 131 µM in the experiment on Bacillus cereus and greater than 131 µM against Escherichia coli.
For the compound `CC[C@H](C)[C@H](NC(=O)[C@H](CCCCN)NC(=O)[C@@H](NC(=O)[C@H](C)NC(=O)[C@@H](NC(=O)[C@H](CC(C)C)NC(=O)[C@H](CCCCN)NC(=O)[C@H](C)NC(=O)[C@@H](NC(=O)[C@@H](NC(=O)CNC(=O)[C@@H](NC(=O)[C@H](CC(C)C)NC(=O)[C@@H](N)[C@@H](C)O)C(C)C)C(C)C)C(C)C)C(C)C)[C@@H](C)O)C(=O)NCC(=O)N[C@@H](CO)C(=O)N[C@@H](CO)C(=O)N1CCC[C@H]1C(=O)N[C@@H](CCCN=C(N)N)C(=O)N[C@@H](C)C(=O)O` [TLVGVVAKLVATKIGSSPRA], the minimal inhibitory concentration (MIC) was no less than 130 µM against Bacillus cereus and greater than 130 µM against Escherichia coli.
